In patent publication US10294234B2, “HIV inhibitor compounds” (priority 2017, dated 2019):
Read-outs that look alike come from different tables or passages of the source.

Assays:
[1] = 3H Human Predicted Clearance Assay (tritiated analogs); format: in vitro ADME; conditions: human, 1 uM
Protocol: 3H Human Predicted Clearance Assay:
For certain compounds, tritiated analogs (H^3) were prepared to further determined their human predicted clearance with increased resolution. Those studies were performed as described above using the tritiated analogs. Data from those compounds is found in Table 2 below and reported in FIG. 1 (note ATV and DRV were not tritiated).

[2] = Outline: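 Each compound (1 uM) is incubated in duplicate with 0.5 mg/mL liver microsomal protein from dog, rat or human plus NADPH-regenerating system. Samples taken at 2, 12, 25, 45 and 65 minutes are deproteinised and quantified by LC/MS/MS. Half-life gives Clint.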
in vivo [3] = conditions: for Vd / RAT IV CL / RAT IV T1/2: iv
Outline: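 Male SD rats (n=3/group, 0.27–0.32 kg), fasted overnight, given 0.5 or 1.0 mg/kg by 30-min IV infusion, or by oral gavage. Serial plasma samples (EDTA-K2) over 24 h measured by LC/MS/MS; non-compartmental PK analysis.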

[4] = system: HIV-1 (IIIB) in MT-4 cells; experiment: MT-4 HIV assay; format: cell-based; conditions: Human immunodeficiency virus 1, MT4, 120 h; HIV-1 (IIIB), MT-4 cells, 5 days, Cell Titer Glo; read-out: EC50
Outline: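 Antiviral activity was read by Cell Titer Glo after a 5-day, 37 °C culture of MT-4 cells pre-infected with a 1:250 dilution of HIV-1 (IIIB). Compounds were tested as threefold dilution series in complete RPMI. Controls were no drug, mock infection and 5 uM AZT.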

in vivo [5] = experiment: in vivo
Protocol: Pharmacokinetic Profiling Dog PK
Each dosing group consisted of three non-naïve male beagle dogs. At dosing, the animals weighed between 9 to 12 kg. The animals were fasted overnight prior to dose administration and up to four hours after dosing. The test article was administered by intravenous infusion over 30-minutes. The rate of infusion was adjusted according to the body weight of each animal to deliver a dose of 0.5 or 1.0 mg/kg. For the oral dosing group, the test article was administered by oral gavage at a dose volume of 2 mL/kg.
Serial venous blood samples (approximately 1.0 mL each) were collected at predose and 0.25, 0.48, 0.58, 0.75, 1.0, 1.5, 2, 4, 8, 12 and 24 hours post dose from each animal for the IV dosing group; blood samples were collected at predose, 0.25, 0.50, 1, 2 4, 6, 8,12 and 24 hours post dose for the oral dosing group. The blood samples were collected into Vacutainer™ tubes containing EDTA-K2 as the anti-coagulant and were immediately placed on wet ice pending centrifugation for plasma. An LC/MS/MS method was used to measure the concentration of test compound in plasma. Non-compartmental pharmacokinetic analysis was performed on the plasma concentration-time data. VSS=apparent volume of distribution, t1/2=half life, F=oral bioavailability.

[6] = system: HIV-1 (IIIB) in MT-4 cells; experiment: Protein adjusted EC95 (high resolution antiviral assay with equilibrium dialysis plasma protein binding); format: cell-based; conditions: EC95 adjusted for plasma protein binding (10% plasma vs cell culture media)
Protocol: (§1) MT-4 HIV High Resolution Antiviral Assay
(§2) Assay protocol is identical to that described for the MT-4 antiviral assay with the following changes: Each drug is run in 2 series of quadruplicates with different starting concentrations for each series and 19 1.5 fold dilutions performed across the plate. […] Data is analyzed and Hill coefficients determined in Graph Pad Prism (San Diego, Calif.). EC95s were determined by the formula EC95=(19)^I/hill coefficient×EC50. HD values were determined for certain compounds and reported in Table 5 below as an illustrative example.
Equilibrium Dialysis Assay
Pooled plasma (from at least 3 males and 3 females) was from Bioreclamation IVT. Sodium EDTA was used as the anticoagulant. 10% plasma was diluted in 0.133M phosphate buffer consisted of 1.5% (w/v) Sodium EDTA.
RPMI cell culture media consisted 10% FBS was provided by biology department, Gilead Sciences, Inc.
Plasma Protein Binding Assay:
Studies were conducted in duplicate or triplicate using a Dianorm Equilibrium Dialyser (Harvard Apparatus, Holliston Mass.) with each cell consisting of a semipermeable membrane (2.4 cm working diameter) separating two 1 mL PTFE half-cells (Weder HG, Schildknecht J, Kesselring P. A new equilibrium dialyzing system. American Laboratory. 1971; 10: 15-21). Prior to the study, the dialysis membrane was soaked for approximately one hour in 0.133 M phosphate buffer, pH 7.4. 10% plasma and cell culture media spiked with 1 μM compound (1 mL) were placed into opposite sides of the assembled dialysis cells and the dialysis cells were then rotated slowly in a 37° C. water bath. After the equilibration period, matrix-containing samples from both sides were drained into pre-weighed polypropylene tubes. Post-dialysis 10% plasma samples were transferred into centrifuge tubes containing 1 mL of blank cell culture media. Post-dialysis cell culture media samples were transferred into centrifuge tubes containing 1 mL of blank 10% plasma. All samples weights were measured and recorded for calculations of volume shift and recovery. […]

[7] = system: HIV-1 (IIIB) in MT-4 cells; experiment: MT-4 HIV High Resolution Antiviral Assay; format: cell-based; conditions: for EC50: Human immunodeficiency virus 1, IIIB, MT4; for EC95: calculated from Hill coefficient and EC50; for Hill-coefficient: Graph Pad Prism
Protocol: Compounds were tested in a high-throughput 384-well assay format for their ability to inhibit the replication of HIV-1 (IIIB) in MT-4 cells. Compounds were serially diluted (1:3) in DMSO on 384-well polypropylene plates and further diluted 200-fold into complete RPMI media (10% FBS, 1% P/S) using the Biotek Micro Flow and Agilent ECHO acoustic dispenser. Each plate contained up to 8 test compounds, with negative (No Drug Control) and 5 uM AZT positive controls. MT-4 cells were pre-infected with 10 uL of either RPMI (mock-infected) or a fresh 1:250 dilution of an HIV-1 (IIIB) concentrated virus stock. Infected and uninfected MT-4 cells were further diluted in complete RPMI media and added to each plate using a Micro Flow dispenser. After 5 days incubation in a humidified and temperature controlled incubator (37° C.), Cell Titer Glo (Promega) was added to the assay plates to quantify the amount of luciferase. EC50 and CC50 values were defined as the compound concentration that causes a 50% decrease in luminescence signal, and were calculated using a sigmoidal dose-response model to generate curve fits.
as §1, §2

recombinant HIV protease = recombinant HIV protease (Human immunodeficiency virus type 1 group M subtype B, UniProt P04585); experiment: biochemical
Protocol: Inhibitor potency was measured using an enzymatic assay with a fluorogenic readout. […] After a 20-minute pre-incubation, the enzymatic reaction was initiated by the addition of the fluorogenic substrate (2-aminobenzoyl)Thr-Ile-Nle-(p-nitro)Phe-Gln-Arg (Bachem) to a final concentration of 40 μM. The total volume of the assay solution was 100 µL. The reaction was measured over 20 minutes on a Tecan Infinite M1000 plate reader using an excitation wavelength of 320 nm and a detection wavelength of 420 nm. The slopes of the progress curves were the measure of reaction rates.

[8] = male, SD, rat, in vivo, po, 2.5 mg/kg
[9] = male beagle dogs, IV infusion over 30 minutes, 0.5 or 1.0 mg/kg
[10] = male, beagle, dog, in vivo, po, 2 mg/kg

Compound	3H Human Predicted Cl. [1]	Human Pred Cl. ([2]; human, microsomes) [L/H/kg]	Rat. Pred. Cl. ([2]; rat, microsomes) [L/H/kg]	Vd (in vivo [3]; male, SD, rat, in vivo) [L/kg]	RAT PO F (in vivo [3]; [8]) [%]	RAT IV CL (in vivo [3]; rat, in vivo) [L/h/kg]	RAT IV T1/2 (in vivo [3]; rat, in vivo) [h]	EC50 [4] [nM]	DOG IV CL (in vivo [5]; dog, in vivo, iv) [L/h/kg]	DOG IV T1/2 (in vivo [5]; [9]) [h]	Vd (in vivo [5]; male, beagle, dog, in vivo, iv) [L/kg]	DOG PO F (in vivo [5]; [10]) [%]	Protein Adjusted EC95 [6] [nM]	EC95 [7] [nM]	Hill-coefficient ([7]; high resolution assay)	also measured
COC(=O)N[C@H](C(=O)N[C@@H](Cc1ccc(C#Cc2ccc(N3CC4CCC(C3)N4C3COC3)nc2)cc1)[C@@H](O)CN(Cc1c(F)cc(-c2ccn(C3CC3)n2)cc1F)NC(=O)[C@@H](NC(=O)OC)C(C)(C)C(F)(F)F)C(C)(C)C(F)(F)F [Example 170, Methyl ((5S,8S,9S,14S)-11-(4-(1-cyclopropyl-1H-pyrazol-3-yl)-2,6-difluorobenzyl)-16,16,16-trifluoro-9-hydroxy-15,15-dimethyl-8-(4-((6-(8-(oxetan-3-yl)-3,8-diazabicyclo [3.2.1]octan-3-yl)pyridin-3-yl)ethynyl)benzyl)-3,6,13-trioxo-5-(1,1,1-trifluoro-2-methylpropan-2-yl)-2-oxa-4,7,11,12-tetraazahexadecan-14-yl)carbamate]	0.05	<0.11	<0.18	3.32	36.6	0.35	9.38	4.13	1.39	7.62	4.35	2.45	–	–	–	–
COC(=O)N[C@H](C(=O)N[C@@H](Cc1ccc(C#Cc2cnc(N3CC4CCC(C3)N4C3COC3)nc2)cc1)[C@@H](O)CN(Cc1c(F)cc(-c2ccn(C(F)F)n2)cc1F)NC(=O)[C@@H](NC(=O)OC)C(C)(C)C(F)(F)F)C(C)(C)C(F)(F)F [Example 171, Methyl ((5S,8S,9S,14S)-11-(4-(1-(difluoromethyl)-1H-pyrazol-3-yl)-2,6-difluorobenzyl)-16,16,16-trifluoro-9-hydroxy-15,15-dimethyl-8-(4-((2-(8-(oxetan-3-yl)-3,8-diazabicyclo[3.2.1]octan-3-yl)pyrimidin-5-yl)ethynyl)benzyl)-3,6,13-trioxo-5-(1,1,1-trifluoro-2-methylpropan-2-yl)-2-oxa-4,7,11,12-tetraazahexadecan-14-yl)carbamate]	0.02	<0.11	0.215	8.11	39	0.32	22.5	4.59	0.26	13.4	3.12	23	–	–	–	Dog. Pred. Cl. ([2]; dog, microsomes): 0.27 L/H/kg
COC(=O)N[C@H](C(=O)N[C@@H](Cc1ccccc1)[C@@H](O)CN(Cc1ccc(-c2ccccn2)cc1)NC(=O)[C@@H](NC(=O)OC)C(C)(C)C)C(C)(C)C [atazanavir, methyl N-[(2S)-1-[2-[(2S,3S)-2-hydroxy-3-[[(2S)-2-(methoxycarbonylamino)-3,3-dimethylbutanoyl]amino]-4-phenylbutyl]-2-[(4-pyridin-2-ylphenyl)methyl]hydrazinyl]-3,3-dimethyl-1-oxobutan-2-yl]carbamate, reference compound]	–	–	–	0.87	–	2.7	0.37	–	–	1.3	–	–	75	25	3.1	Dog. Pred. Cl. ([2]; dog liver microsomes 0.5 mg/mL, 1 uM compound, NADPH): 1.4 L/H/kg; Human Pred Cl. ([2]; human liver microsomes 0.5 mg/mL, 1 uM compound, NADPH): 1.07 L/H/kg; Rat. Pred. Cl. ([2]; rat liver microsomes 0.5 mg/mL, 1 uM compound, NADPH): 3.7 L/H/kg; EC50 ([7]; high resolution assay, 40 data points, MT-4 cells, read-out: EC50): 9.7 nM; RAT PO F (in vivo [3]; male, SD, rat, in vivo, po, 5 mg/kg): 38%; DOG IV CL (in vivo [5]; [9]): 1.0 L/h/kg; DOG PO F (in vivo [5]; male beagle dogs, oral gavage, PO dose 10 mg/kg): 48%; Vd (in vivo [5]; male, beagle, dog, plasma, iv): 0.9 L/kg; Ki (recombinant HIV protease): 0.035 nM
CC(C)CN(C[C@@H](O)[C@H](Cc1ccccc1)NC(=O)O[C@H]1CO[C@H]2OCC[C@H]21)S(=O)(=O)c1ccc(N)cc1 [darunavir, [(3aS,4R,6aR)-2,3,3a,4,5,6a-hexahydrofuro[2,3-b]furan-4-yl] N-[(2S,3R)-4-[(4-aminophenyl)sulfonyl-(2-methylpropyl)amino]-3-hydroxy-1-phenylbutan-2-yl]carbamate, reference compound]	–	–	–	0.73	–	–	–	–	–	–	0.87	–	42	19.9	2.9	EC50 [7]: 7.2 nM; RAT PO F (in vivo [3]; male SD rats, oral gavage, PO dose 2.0 mg/kg): 24%; DOG PO F (in vivo [5]; male beagle dogs, oral gavage, PO dose 2 mg/kg): 38%
